Patent US20220177538A1, “CO-AGONISTS AT GLP-1 AND GIP RECEPTORS SUITABLE FOR ORAL DELIVERY” (Novo Nordisk A/S, priority 2020, published 2022)
pEC50: −log10 of the molar value. Read-outs that look alike come from different tables or passages of the source. Starred links: 1 amine or outer side, 2 acyl side, 3 side chain; linkers in the order of their positions; H or OH if unused. Non-standard residues stand in square brackets, D forms with d. Residues, ends and D or L forms follow the SMILES beside them. Groups on a side chain read outwards from the residue. *: point of attachment. C18 diacid = O=C(O)CCCCCCCCCCCCCCCCC(=O)*; γGlu = O=C(O)[C@H](CCC(=O)[*:2])N[*:1]; εLys = N[C@@H](CCCCN[*:1])C(=O)[*:2]; AEEA = NCCOCCOCC(=O)O; Aib = CC(C)(N)C(=O)O

Legend:
human GLP-1 receptor = human GLP-1 receptor (Homo sapiens, UniProt P43220); assay: In vitro functional potency, CRE luciferase reporter, whole BHK cells (hGLP-1R); assay type: cell-based; set-up: expressed in transfected cells; host or cells: BHK (parent line BHKTS13), clone BHK CRE luc2P hGLP-1R; settings: BHK CRE luc2P hGLP-1R cells
Sequence of human GLP-1 receptor (P43220 24-463): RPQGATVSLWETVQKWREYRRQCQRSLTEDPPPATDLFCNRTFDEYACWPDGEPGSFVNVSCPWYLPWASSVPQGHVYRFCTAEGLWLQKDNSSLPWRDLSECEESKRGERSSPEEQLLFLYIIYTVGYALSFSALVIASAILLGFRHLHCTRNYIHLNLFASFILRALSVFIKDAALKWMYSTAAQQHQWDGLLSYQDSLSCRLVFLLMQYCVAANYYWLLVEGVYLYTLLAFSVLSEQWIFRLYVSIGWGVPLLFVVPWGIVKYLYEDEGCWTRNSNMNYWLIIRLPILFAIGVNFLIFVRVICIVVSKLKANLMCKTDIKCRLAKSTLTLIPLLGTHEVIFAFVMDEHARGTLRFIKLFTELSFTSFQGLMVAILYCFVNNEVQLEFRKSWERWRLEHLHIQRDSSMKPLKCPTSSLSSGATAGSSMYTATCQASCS
In short: (§1)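 Potencies are replicate means (n≥2) from non-linear log(agonist) vs response fits of CRE-driven luminescence. Cells were overnight-plated BHK CRE luc2P lines transfected with human GIPR or GLP-1R, 5000/well.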

human GIP receptor = biological target: T1, human GIP receptor (Homo sapiens, UniProt P48546); assay: In vitro functional potency, CRE luciferase reporter, whole BHK cells (hGIPR); assay type: cell-based; settings: BHK CRE luc2P hGIPR cells
T1 construct: expressed in transfected cells; host or cells: BHK (parent line BHKTS13), clone BHK CRE luc2P hGIPR
T1 sequence (P48546 22-466): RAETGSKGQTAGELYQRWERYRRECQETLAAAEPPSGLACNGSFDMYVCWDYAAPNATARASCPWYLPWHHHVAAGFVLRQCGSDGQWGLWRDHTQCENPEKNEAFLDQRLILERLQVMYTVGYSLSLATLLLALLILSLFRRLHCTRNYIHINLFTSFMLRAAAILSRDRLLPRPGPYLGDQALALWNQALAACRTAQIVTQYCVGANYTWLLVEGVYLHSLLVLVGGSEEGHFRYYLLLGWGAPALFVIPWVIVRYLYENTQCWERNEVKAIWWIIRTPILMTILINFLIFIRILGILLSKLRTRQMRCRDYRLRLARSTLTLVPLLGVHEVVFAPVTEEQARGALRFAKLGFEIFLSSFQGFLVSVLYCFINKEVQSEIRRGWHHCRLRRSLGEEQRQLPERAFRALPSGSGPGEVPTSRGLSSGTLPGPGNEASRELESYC
In short: as §1

[1] = 0% HSA, read-out: hGLP-1R, CRE Luc 0% HSA EC50
[2] = hGLP-1R, CRE Luc 1% HSA EC50, 1% HSA
[3] = 0% HSA, read-out: hGIPR, CRE Luc 0% HSA EC50
[4] = hGIPR, CRE Luc 1% HSA EC50, 1% HSA

| SMILES | pEC50 (human GLP-1 receptor; [1]) | pEC50 (human GLP-1 receptor; [2]) | pEC50 (human GIP receptor; [3]) | pEC50 (human GIP receptor; [4]) | pEC50 (human GLP-1 receptor; hGLP-1R, CRE Luc 0% HSA EC50, 0% HSA) | pEC50 (human GIP receptor; hGIPR, CRE Luc 0% HSA EC50, 0% HSA) |
| --- | --- | --- | --- | --- | --- | --- |
| CC[C@H](C)[C@H](NC(=O)[C@H](Cc1ccccc1)NC(=O)[C@H](CCCCNC(=O)[C@@H](N)CCCCNC(=O)[C@@H](N)CCCCNC(=O)CC[C@H](NC(=O)CCCCCCCCCCCCCCCCC(=O)O)C(=O)O)NC(=O)[C@H](CCCNC(=N)N)NC(=O)[C@H](C)NC(=O)[C@H](C)NC(=O)[C@H](CCC(N)=O)NC(=O)[C@H](CCC(=O)O)NC(=O)[C@H](CCC(=O)O)NC(=O)[C@H](CC(C)C)NC(=O)[C@H](Cc1ccc(O)cc1)NC(=O)[C@@H](NC(=O)[C@H](CO)NC(=O)[C@H](Cc1ccc(O)cc1)NC(=O)[C@H](CC(=O)O)NC(=O)[C@H](CO)NC(=O)[C@@H](NC(=O)[C@H](Cc1ccccc1)NC(=O)[C@@H](NC(=O)CNC(=O)[C@H](CCC(=O)O)NC(=O)C(C)(C)NC(=O)[C@@H](N)Cc1ccc(O)cc1)[C@@H](C)O)[C@@H](C)O)[C@@H](C)CC)C(=O)N[C@@H](CC(N)=O)C(=O)N[C@@H](Cc1c[nH]c2ccccc12)C(=O)N[C@@H](CC(C)C)C(=O)N[C@@H](CC(C)C)C(=O)N[C@@H](C)C(=O)NCC(=O)NCC(=O)N1CCC[C@H]1C(=O)N[C@@H](CO)C(=O)N[C@@H](CO)C(=O)NCC(=O)N[C@@H](C)C(=O)N1CCC[C@H]1C(=O)N1CCC[C@H]1C(=O)N1CCC[C@H]1C(=O)N[C@@H](CO)C(=O)O [Compound 37] (H-Y[Aib]EGTFTSDYSIYLEEQAARK([εLys-εLys-γGlu-C18 diacid])FINWLLAGGPSSGAPPPS-OH) | 11.57 | 10.02 | 10.95 | 9.53 |  |  |
| CC[C@H](C)[C@H](NC(=O)[C@H](Cc1ccccc1)NC(=O)[C@H](CCC(=O)O)NC(=O)[C@H](CCCNC(=N)N)NC(=O)[C@H](C)NC(=O)[C@H](C)NC(=O)[C@H](CCC(N)=O)NC(=O)[C@H](CCC(=O)O)NC(=O)[C@H](CCC(=O)O)NC(=O)[C@H](CC(C)C)NC(=O)[C@H](CC(C)C)NC(=O)[C@@H](NC(=O)[C@H](CO)NC(=O)[C@H](Cc1ccc(O)cc1)NC(=O)[C@H](CC(=O)O)NC(=O)[C@H](CO)NC(=O)[C@@H](NC(=O)[C@H](Cc1ccccc1)NC(=O)[C@@H](NC(=O)CNC(=O)[C@H](CCC(=O)O)NC(=O)C(C)(C)NC(=O)[C@@H](N)Cc1ccc(O)cc1)[C@@H](C)O)[C@@H](C)O)[C@@H](C)CC)C(=O)N[C@@H](CC(N)=O)C(=O)N[C@@H](Cc1c[nH]c2ccccc12)C(=O)N[C@@H](CC(C)C)C(=O)N[C@@H](CC(C)C)C(=O)N[C@@H](C)C(=O)NCC(=O)NCC(=O)N1CCC[C@H]1C(=O)N[C@@H](CO)C(=O)N[C@@H](CCCCNC(=O)[C@@H](N)CCCCNC(=O)[C@@H](N)CCCCNC(=O)CC[C@H](NC(=O)CCCCCCCCCCCCCCCCC(=O)O)C(=O)O)C(=O)NCC(=O)N[C@@H](C)C(=O)N1CCC[C@H]1C(=O)N1CCC[C@H]1C(=O)N1CCC[C@H]1C(=O)N[C@@H](CO)C(=O)O [Compound 44] (H-Y[Aib]EGTFTSDYSILLEEQAAREFINWLLAGGPSK([εLys-εLys-γGlu-C18 diacid])GAPPPS-OH) | 11.38 | 9.62 | 11.24 | 9.44 |  |  |
| CC[C@H](C)[C@H](NC(=O)[C@H](Cc1ccccc1)NC(=O)[C@H](CCC(=O)O)NC(=O)[C@H](CCCNC(=N)N)NC(=O)[C@H](C)NC(=O)[C@H](C)NC(=O)[C@H](CCC(N)=O)NC(=O)[C@H](CCCCNC(=O)[C@@H](N)CCCCNC(=O)[C@@H](N)CCCCNC(=O)CC[C@H](NC(=O)CCCCCCCCCCCCCCCCC(=O)O)C(=O)O)NC(=O)[C@H](CCC(=O)O)NC(=O)[C@H](CC(C)C)NC(=O)[C@H](CC(C)C)NC(=O)[C@@H](NC(=O)[C@H](CO)NC(=O)[C@H](Cc1ccc(O)cc1)NC(=O)[C@H](CC(=O)O)NC(=O)[C@H](CO)NC(=O)[C@@H](NC(=O)[C@H](Cc1ccccc1)NC(=O)[C@@H](NC(=O)CNC(=O)[C@H](CCC(=O)O)NC(=O)C(C)(C)NC(=O)[C@@H](N)Cc1ccc(O)cc1)[C@@H](C)O)[C@@H](C)O)[C@@H](C)CC)C(=O)N[C@@H](CC(N)=O)C(=O)N[C@@H](Cc1c[nH]c2ccccc12)C(=O)N[C@@H](CC(C)C)C(=O)N[C@@H](CC(C)C)C(=O)N[C@@H](C)C(=O)NCC(=O)O [Compound 18] (H-Y[Aib]EGTFTSDYSILLEK([εLys-εLys-γGlu-C18 diacid])QAAREFINWLLAG-OH) | 10.71 | 9.65 | 10.68 | 9.55 |  |  |
| CC[C@H](C)[C@H](NC(=O)[C@H](Cc1ccccc1)NC(=O)[C@H](CCC(=O)O)NC(=O)[C@H](CCCNC(=N)N)NC(=O)[C@H](C)NC(=O)[C@H](C)NC(=O)[C@H](CCCCNC(=O)[C@@H](N)CCCCNC(=O)[C@@H](N)CCCCNC(=O)CC[C@H](NC(=O)CCCCCCCCCCCCCCCCC(=O)O)C(=O)O)NC(=O)[C@H](CCC(=O)O)NC(=O)[C@H](CCC(=O)O)NC(=O)[C@H](CC(C)C)NC(=O)[C@H](Cc1ccc(O)cc1)NC(=O)[C@@H](NC(=O)[C@H](CO)NC(=O)[C@H](Cc1ccc(O)cc1)NC(=O)[C@H](CC(=O)O)NC(=O)[C@H](CO)NC(=O)[C@@H](NC(=O)[C@H](Cc1ccccc1)NC(=O)[C@@H](NC(=O)CNC(=O)[C@H](CCC(=O)O)NC(=O)C(C)(C)NC(=O)[C@@H](N)Cc1ccc(O)cc1)[C@@H](C)O)[C@@H](C)O)[C@@H](C)CC)C(=O)N[C@@H](CC(N)=O)C(=O)N[C@@H](Cc1c[nH]c2ccccc12)C(=O)N[C@@H](CC(C)C)C(=O)N[C@@H](CC(C)C)C(=O)N[C@@H](C)C(=O)NCC(=O)NCC(=O)N1CCC[C@H]1C(=O)N[C@@H](CO)C(=O)N[C@@H](CO)C(=O)NCC(=O)N[C@@H](C)C(=O)N1CCC[C@H]1C(=O)N1CCC[C@H]1C(=O)N1CCC[C@H]1C(=O)N[C@@H](CO)C(=O)O [Compound 38] (H-Y[Aib]EGTFTSDYSIYLEEK([εLys-εLys-γGlu-C18 diacid])AAREFINWLLAGGPSSGAPPPS-OH) | 11.51 | 9.59 | 10.91 | 9.09 |  |  |
| CC[C@H](C)[C@H](NC(=O)[C@H](Cc1ccccc1)NC(=O)[C@H](CCC(=O)O)NC(=O)[C@H](CCCNC(=N)N)NC(=O)[C@H](C)NC(=O)[C@H](C)NC(=O)[C@H](CCC(N)=O)NC(=O)[C@H](CCCCNC(=O)[C@@H](N)CCCCNC(=O)[C@@H](N)CCCCNC(=O)CC[C@H](NC(=O)CCCCCCCCCCCCCCCCC(=O)O)C(=O)O)NC(=O)[C@H](CCC(=O)O)NC(=O)[C@H](CC(C)C)NC(=O)[C@H](CC(C)C)NC(=O)[C@@H](NC(=O)[C@H](CO)NC(=O)[C@H](Cc1ccc(O)cc1)NC(=O)[C@H](CC(=O)O)NC(=O)[C@H](CO)NC(=O)[C@@H](NC(=O)[C@H](Cc1ccccc1)NC(=O)[C@@H](NC(=O)CNC(=O)[C@H](CCC(=O)O)NC(=O)C(C)(C)NC(=O)[C@@H](N)Cc1ccc(O)cc1)[C@@H](C)O)[C@@H](C)O)[C@@H](C)CC)C(=O)N[C@@H](CC(N)=O)C(=O)N[C@@H](Cc1c[nH]c2ccccc12)C(=O)N[C@@H](CC(C)C)C(=O)N[C@@H](CC(C)C)C(=O)N[C@@H](C)C(=O)NCC(=O)NCC(=O)N1CCC[C@H]1C(=O)N[C@@H](CO)C(=O)N[C@@H](CO)C(=O)NCC(=O)N[C@@H](C)C(=O)O [Compound 21] (H-Y[Aib]EGTFTSDYSILLEK([εLys-εLys-γGlu-C18 diacid])QAAREFINWLLAGGPSSGA-OH) |  | 9.93 |  | 9.88 | 11.24 | 11.27 |
| CC[C@H](C)[C@H](NC(=O)[C@H](Cc1ccccc1)NC(=O)[C@H](CCC(=O)O)NC(=O)[C@H](CCCNC(=N)N)NC(=O)[C@H](C)NC(=O)[C@H](C)NC(=O)[C@H](CCC(N)=O)NC(=O)[C@H](CCCCNC(=O)COCCOCCNC(=O)COCCOCCNC(=O)CC[C@H](NC(=O)CCCCCCCCCCCCCCCCC(=O)O)C(=O)O)NC(=O)[C@H](CCC(=O)O)NC(=O)[C@H](CC(C)C)NC(=O)[C@@H](NC(=O)[C@@H](NC(=O)[C@H](CO)NC(=O)[C@H](Cc1ccc(O)cc1)NC(=O)[C@H](CC(=O)O)NC(=O)[C@H](CO)NC(=O)[C@@H](NC(=O)[C@H](Cc1ccccc1)NC(=O)[C@@H](NC(=O)CNC(=O)[C@H](CCC(=O)O)NC(=O)C(C)(C)NC(=O)[C@@H](N)Cc1ccc(O)cc1)[C@@H](C)O)[C@@H](C)O)[C@@H](C)CC)[C@@H](C)CC)C(=O)N[C@@H](CC(N)=O)C(=O)N[C@@H](Cc1c[nH]c2ccccc12)C(=O)N[C@@H](CC(C)C)C(=O)N[C@@H](CC(C)C)C(=O)N[C@@H](C)C(=O)NCC(=O)NCC(=O)N1CCC[C@H]1C(=O)N[C@@H](CO)C(=O)N[C@@H](CO)C(=O)NCC(=O)N[C@@H](C)C(=O)N1CCC[C@H]1C(=O)N1CCC[C@H]1C(=O)N1CCC[C@H]1C(=O)N[C@@H](CO)C(=O)O [Compound 36] (H-Y[Aib]EGTFTSDYSIILEK([AEEA-AEEA-γGlu-C18 diacid])QAAREFINWLLAGGPSSGAPPPS-OH) | 11.33 | 9.38 | 11.26 | 9.45 |  |  |
